From ChEMBL document CHEMBL1944628, “Bioanalytical Screening of Riboflavin Antagonists for Targeted Drug Delivery - A Thermodynamic and Kinetic Study” (ACS Med Chem Lett, 2011)

What was measured:
[1] = biological target: T1, Riboflavin-binding protein (Gallus gallus) (UniProt P02752); experiment: Competitive inhibition of chicken riboflavin binding protein binding to immobilized ligand at 500 uM by surface plasmon resonance assay
T1 sequence (whole entry): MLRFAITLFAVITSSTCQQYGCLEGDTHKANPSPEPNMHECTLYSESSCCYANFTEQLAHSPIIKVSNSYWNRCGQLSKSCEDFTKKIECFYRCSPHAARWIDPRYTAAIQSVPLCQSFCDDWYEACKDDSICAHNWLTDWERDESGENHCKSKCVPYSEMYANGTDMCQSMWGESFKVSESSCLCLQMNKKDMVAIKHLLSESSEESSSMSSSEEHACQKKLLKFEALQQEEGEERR

[2] = biological target: T1, Riboflavin-binding protein (Gallus gallus); experiment: Competitive inhibition of chicken riboflavin binding protein binding to immobilized ligand by surface plasmon resonance assay
[3] = biological target: T2, Riboflavin-binding protein (Gallus gallus, UniProt P02752); experiment: Binding affinity to chicken riboflavin binding protein by surface plasmon resonance assay
T2 sequence (P02752 whole entry): T1 sequence (whole entry)

[4] = biological target: T2, Riboflavin-binding protein; experiment: Binding affinity to chicken riboflavin binding protein assessed as dissociation constant at pH 9 in 0.1 M Tris by isothermal titration calorimetric assay
[5] = biological target: T2, Riboflavin-binding protein; experiment: Competitive inhibition of chicken riboflavin binding protein by surface plasmon resonance assay
[6] = biological target: T2, Riboflavin-binding protein; experiment: Binding affinity to chicken riboflavin binding protein assessed as dissociation constant at pH 7.4 in phosphate buffer by isothermal titration calorimetric assay
[7] = biological target: T2, Riboflavin-binding protein; experiment: Binding affinity to chicken riboflavin binding protein assessed as dissociation constant at pH 4 in 0.1 M NaAc by isothermal titration calorimetric assay
[8] = biological target: T2, Riboflavin-binding protein; experiment: Binding affinity to chicken riboflavin binding protein assessed as dissociation constant at pH 7.4 in 0.1 M phosphate buffer by isothermal titration calorimetric assay

inhibition [1] [%]	inhibition [2]	Kd [3] [nM]	Kd [4] [nM]	Ki [5] [nM]	Kd [7] [nM]	Kd [8] [nM]	Structure (SMILES)	Kd [6] [nM]
90	Dose-dependent effect	35500					Cc1cc2nc3c(=O)n(CC(=O)NCCCN)c(=O)nc-3n(C[C@H](O)[C@H](O)[C@H](O)CO)c2cc1C	
			34	350	46	6.6	Cc1cc2nc3c(=O)[nH]c(=O)nc-3n(C[C@H](O)[C@H](O)[C@H](O)CO)c2cc1C [RIBOFLAVIN]	5
							Cc1cc2nc3c(=O)[nH]c(=O)nc-3n(C)c2cc1C [LUMIFLAVIN]	61
